Measurements published in patent publication US20140221490A1, “METHODS OF TREATING PAIN” (Hospira, Inc., priority 2011, published 2014).
Each block holds one compound with its values, some of them ahead of it.

Legend:
[1] = Study 2: pharmacokinetics of HPβCD-diclofenac and excipient HPβCD in subjects with renal or hepatic impairment and healthy subjects (crossover vs itraconazole); format: in vivo, human; conditions: for AUC(0 − t) / AUC∞ / CL / Vz / t½ / λz: mean ± SD; for Tmax: median; for maximum HPβCD plasma concentration: after administration of Dyloject
Experimental: Subjects with mild chronic hepatic impairment, as defined by Child-Pugh Classification A, Score of 5 to 6 and a bilirubin of ≦2.5 mg/dl, were recruited. Subjects with renal or hepatic impairment were included if they were between 18-75 years of age, and healthy subjects between 18 and 65 years of age.
Inclusion criteria for healthy subjects were similar to those for Study 1. Healthy subjects were required to have normal renal function, defined as CrCl>80 mL/min, and normal hepatic function. […]
Similar to Study 1, there were allowances for a greater breadth of co-morbid conditions in the renal and hepatic groups. […] Diabetic patients must have been on a stable therapeutic regimen for four weeks.
Exclusion criteria included pregnancy, uncontrolled or poorly controlled diabetes, use of dialysis, fluctuating or rapidly deteriorating hepatic function, hepatic or other cancers, organ transplantation or immunosuppression, acute infections, or asthma. Subjects were excluded for any serious cardiovascular events, such as myocardial infarction, coronary artery bypass surgery or percutaneous coronary intervention, unstable angina, stroke or congestive heart failure. Restrictions were also placed on certain disease states, such as current intestinal disorders or infections, peptic ulcers, GI bleeding or cerebral hemorrhage. Subjects who were positive for hepatitis B or hepatitis C were excluded from the healthy and renal groups, but were included in the subjects with mild chronic hepatic impairment. […] Hypersensitivity to NSAIDs or diclofenac also prompted exclusion.
Subjects with renal or hepatic impairment reported to the study site on study day 0 and remained at the site for two nights and two days. […] Subjects were discharged on study day 2 after being assessed by the investigator, and returned 7±3 days after dosing for final safety assessments. If there were no abnormal findings at discharge, the follow-up visit was completed via telephone.
Healthy subjects reported to the study site on study day 0 and remained at the site for three nights and three days. […] Blood samples were obtained as described above for renal and hepatic subjects. […] For itraconazole, one blood sample was to be drawn at each time point to assay for HPβCD concentrations. Subjects were discharged on study day 3 after being assessed by the investigator, and returned 7±3 days after receiving the last dose of study drug for safety assessments.
The LOQ for the HPβCD assay was 100 ng/ml.
Pharmacokinetic parameters were calculated using non-compartmental analysis. Only those plasma concentrations equal to or greater than the lower limit of quantitation were used in the analysis. Actual sampling times were used in all pharmacokinetic analyses.
The maximum serum concentration (Cmax) and time to Cmax (Tmax) were taken directly from the data. The elimination rate constant, λz, was calculated as the negative of the slope of the terminal log-linear segment of the serum concentration-time curve. The range of data used for each subject and treatment was determined by visual inspection of a semi-logarithmic plot of concentration vs. time. Elimination half-life (t½) was calculated according to the following equation;
where Ctf is the final concentration≧: LOQ. Total plasma clearance (CL) was calculated as Dose/AUC, and volume of distribution (Vz) was calculated as Dose/λz AUC.
Comparisons among the three subject types were done using […]. The same model was used to test for the effect of hepatic impairment on the pharmacokinetics of diclofenac and HPβCD but without additional comparisons, as there were only two groups.

[2] = cited from earlier work
[3] = Study 2, Healthy matches (to hepatic group), 37.5 mg HPβCD-diclofenac IV, plasma HPβCD
[4] = Study 2, Healthy matches (to renal groups), 37.5 mg HPβCD-diclofenac IV, plasma HPβCD
[5] = Study 2, Healthy, plasma HPβCD after 37.5 mg HPβCD-diclofenac IV
[6] = Study 2, Healthy, plasma HPβCD after 200 mg itraconazole IV
[7] = Study 2, Mild Hepatic, 37.5 mg HPβCD-diclofenac IV, plasma HPβCD
[8] = Study 2, Mild Renal, 37.5 mg HPβCD-diclofenac IV, plasma HPβCD
[9] = Study 2, Moderate renal, 37.5 mg HPβCD-diclofenac IV, plasma HPβCD
[10] = moderate renal insufficiency compared to healthy subjects
[11] = subjects with moderate renal insufficiency, 37.5 mg dose of HPβCD-diclofenac

PK in subjects with mild hepatic impairment versus matched healthy controls ([1]; 37.5 mg IV): no differences
exposure to HPβCD, geometric least squares mean ratio of AUC∞, relative to 8000 mg as Sporanox ([1]; 333.3 mg HPβCD as HPβCD-diclofenac, healthy subjects): 4.58%
AUC(0 − t) [1, 3]: 52,982 ± 11,267 h × ng/mL
AUC∞ [1, 3]: 53,651 ± 11,321 h × ng/mL
CL [1, 3]: 107 ± 21.2 mL/min
Vz [1, 3]: 20.6 ± 2.45 L
t½ [1, 3]: 2.28 ± 0.42 h
λz [1, 3]: 0.3127 ± 0.052 h⁻¹
Tmax [1, 3]: 0.083 h
AUC(0 − t) [1, 4]: 66,449 ± 12,642 h × ng/mL
AUC∞ [1, 4]: 67,316 ± 12,615 h × ng/mL
CL [1, 4]: 85.2 ± 16.5 mL/min
Vz [1, 4]: 23.3 ± 9.84 L
t½ [1, 4]: 3.29 ± 1.66 h
λz [1, 4]: 0.2510 ± 0.095 h⁻¹
Tmax [1, 4]: 0.083 h
AUC(0 − t) [1, 5]: 58,994 ± 14,123 h × ng/mL
AUC∞ [1, 5]: 59,709 ± 14,217 h × ng/mL
CL [1, 5]: 98.0 ± 22.7 mL/min
Vz [1, 5]: 21.8 ± 7.36 L
t½ [1, 5]: 2.74 ± 1.35 h
λz [1, 5]: 0.2909 ± 0.0860 h⁻¹
Tmax [1, 5]: 0.083 h
CL [1, 6]: 106 ± 19.0 mL/min
Vz [1, 6]: 23.5 ± 5.65 L
t½ [1, 6]: 2.54 ± 0.25 h
λz [1, 6]: 0.2752 ± 0.0244 h⁻¹
Tmax [1, 6]: 1.083 h
AUC(0 − t) [1, 7]: 55,946 ± 17,233 h × ng/mL
AUC∞ [1, 7]: 56,802 ± 17,412 h × ng/mL
CL [1, 7]: 107 ± 33.8 mL/min
Vz [1, 7]: 20.0 ± 4.19 L
t½ [1, 7]: 2.28 ± 0.60 h
λz [1, 7]: 0.3226 ± 0.084 h⁻¹
Tmax [1, 7]: 0.083 h
AUC(0 − t) [1, 8]: 127,141 ± 90,489 h × ng/mL
AUC∞ [1, 8]: 128,349 ± 91,132 h × ng/mL
CL [1, 8]: 59.0 ± 31.3 mL/min
Vz [1, 8]: 13.6 ± 5.38 L
t½ [1, 8]: 2.87 ± 0.69 h
λz [1, 8]: 0.2549 ± 0.068 h⁻¹
Tmax [1, 8]: 0.083 h
AUC(0 − t) [1, 9]: 169,042 ± 52,722 h × ng/mL
AUC∞ [1, 9]: 165,728 ± 60,386 h × ng/mL
CL [1, 9]: 36.2 ± 10.0 mL/min
Vz [1, 9]: 17.7 ± 1.88 L
t½ [1, 9]: 6.04 ± 1.94 h
λz [1, 9]: 0.1226 ± 0.033 h⁻¹
Tmax [1, 9]: 0.083 h
exposure to HPβCD relative to that of itraconazole ([1]; after a single dose): 1/20
maximum HPβCD plasma concentration ([1]; normal healthy subjects): 70 µg/mL
maximum HPβCD plasma concentration ([1]; subjects with moderate renal impairment): 106 µg/mL
exposure to HPβCD relative to that of itraconazole ([1]; after steady state): ⅛
decrease in CL of HPβCD [1, 10]: 2.4 fold
increase in t½ of HPβCD [1, 10]: 1.8 fold
exposure to HPβCD lower than in healthy subjects administered itraconazole, based on AUC(0-T) [1, 11]: 7.9 fold
exposure to HPβCD lower than in healthy subjects administered itraconazole, based on average concentration at steady state (Cav) [1, 11]: 3.9 fold
Compound: CC(O)COC[C@H]1O[C@@H]2O[C@H]3[C@H](O)[C@@H](O)[C@@H](O[C@H]4[C@H](O)[C@@H](O)[C@@H](O[C@H]5[C@H](O)[C@@H](O)[C@@H](O[C@H]6[C@H](O)[C@@H](O)[C@@H](O[C@H]7[C@H](O)[C@@H](O)[C@@H](O[C@H]8[C@H](O)[C@@H](O)[C@@H](O[C@H]1[C@H](O)[C@H]2O)O[C@@H]8COCC(C)O)O[C@@H]7COCC(C)O)O[C@@H]6COCC(C)O)O[C@@H]5COCC(C)O)O[C@@H]4COCC(C)O)O[C@@H]3COCC(C)O (stereo partly drawn) [HPβCD, hydroxypropyl-beta-cyclodextrin]

Compound: CCCc1nn(C)c2c(=O)[nH]c(-c3cc(S(=O)(=O)N4CCN(C)CC4)ccc3OCC)nc12 [Sildenafil]
Vd, volume of distribution [2]: 1.5 L/kg
Prot. bind., drug fraction bound to protein (fP) ([2]; plasma): 96%
Cmax ([2]; read-out: Cmax, maximum drug concentration in plasma, based on the drug's pharmacokinetics and administration of a normal drug dose): 930 nM
